From US8278083B2 (priority 2004, dated 2012)
Where two headings read alike, the source gives them in different places.

Experiments:
neuraminidase = type: biochemical, influenza virus H3N2
SIV Mne = type: cell-based
tumor cells = type: cell-based
HIV [1] = type: binding; settings: compared with non-treated virus; p24 ELISA; FIG. 7
influenza virus = type: cell-based
SIV = type: cell-based; settings: INA-treated SIV; FIG. 5
EBOV-GFP = type: cell-based, Zaire Ebola virus
influenza HA = type: cell-based, influenza virus; settings: pH 5.0
HIV [2] = type: cell-based; settings: cells exposed to INA-treated HIV; FIG. 6
[3] = test system: influenza virus strain H3N2 (X-31); type: cell-based
HIV-1(MN) = type: cell-based; settings: INA-treated HIV-1(MN); for Avg. Capsid Protein conc. Day 7 / Avg. Capsid Protein conc. Day 14 / Avg. Capsid Protein conc. Day 21: AA2 clone 1 cells; for Culture Result Neg / Culture Result Pos: of quadruplicate cultures
HeLa cell membrane = type: cell-based; settings: HeLa cells, INA 20 or 100 μM + UV; FIG. 17
Zaire EBOV = type: cell-based, Zaire Ebola virus

For `[N-]=[N+]=Nc1cccc2c(I)cccc12` [INA, 1,5-iodonaphthyl azide], the “catalytic activity of the viral envelope enzyme neuraminidase” value (neuraminidase) was “not affected”, the infectivity blocked (SIV Mne; 200 μM INA, SIV (P-28) and HIV (P-24) expression) was 100% and the “production of the viral protein p28” value (SIV Mne; 200 μM INA, up to 11 days after INA treatment, FIG. 4) was “no detectable production”. The 1/TCID50/ml (SIV Mne; INA-treated SIV Mne, Reed and Muench, day 21) was 0, the “Culture Result Pos” value (SIV Mne; INA-treated SIV, 1/dil 10^1, number of cultures productively infected, day 21) was 0 and the “Culture Result Neg” value (SIV Mne; INA-treated SIV, 1/dil 10^1, number of cultures uninfected, day 21) was 0. The “viral infectivity of SIV” value (SIV Mne; as little as 50 μM INA, FIG. 4) was “reduced to essentially zero”, the “ability of tumor cells to divide and form colonies” value (tumor cells) was “blocked their ability to divide and form colonies” and the “binding of INA-treated HIV to neutralizing antibodies 2G12, B12 and 4E10” value (HIV [1]) was “interacts substantially the same as the non-treated virus”. The “pH dependent mixing of lipids from the viral envelope with lipids of the target cell (R-18 dequenching)” value (influenza virus) was “not affected”, the “fusion of SIV with the target cell at the plasma membrane level” value (SIV) was “blocked fusion of SIV with the target cell” and the “concentration sufficient to inactivate EBOV completely” value (EBOV-GFP) was 100 to 200 µM. The “infectivity of EBOV-GFP” value (EBOV-GFP; 24-96 h) was “complete loss of infectivity”, the “redistribution of viral envelope proteins into the cell membrane (125INA incorporation into HA)” value (influenza HA) was “almost no detectable signal” and the “luciferase expression in JC53BL cells” value (HIV [2]) was “substantially no luciferase expression is detected”. For the same molecule, the “infectivity of the influenza virus” value [3] was “reduced the infectivity of the influenza virus to zero”, the “Avg. Capsid Protein conc. Day 7” value (HIV-1(MN); 1/dil 10^1) was 9,201 pg/ml and the “Avg. Capsid Protein conc. Day 14” value (HIV-1(MN); 1/dil 10^1) was 0 pg/mL. The “Avg. Capsid Protein conc. Day 21” value (HIV-1(MN); 1/dil 10^1) was 0 pg/mL, the “Culture Result Neg” value (HIV-1(MN); 1/dil 10^1, day 21) was 4 and the “Culture Result Pos” value (HIV-1(MN); 1/dil 10^1, day 21) was 0. The “Avg. Capsid Protein conc. Day 7” value (HIV-1(MN); 1/dil 10^2) was 0 pg/mL, the “Avg. Capsid Protein conc. Day 14” value (HIV-1(MN); 1/dil 10^2) was 0 pg/mL and the “Avg. Capsid Protein conc. Day 21” value (HIV-1(MN); 1/dil 10^2) was 0 pg/mL. For the same molecule, the “Culture Result Neg” value (HIV-1(MN); 1/dil 10^2, day 21) was 4, the “Culture Result Pos” value (HIV-1(MN); 1/dil 10^2, day 21) was 0 and the “Avg. Capsid Protein conc. Day 7” value (HIV-1(MN); 1/dil 10^3) was 0 pg/mL. The “Avg. Capsid Protein conc. Day 14” value (HIV-1(MN); 1/dil 10^3) was 0 pg/mL, the “Avg. Capsid Protein conc. Day 21” value (HIV-1(MN); 1/dil 10^3) was 0 pg/mL and the “Culture Result Neg” value (HIV-1(MN); 1/dil 10^3, day 21) was 4. For the same molecule, the “Culture Result Pos” value (HIV-1(MN); 1/dil 10^3, day 21) was 0, the “Avg. Capsid Protein conc. Day 7” value (HIV-1(MN); 1/dil 10^4) was 0 pg/mL and the “Avg. Capsid Protein conc. Day 14” value (HIV-1(MN); 1/dil 10^4) was 0 pg/mL. The “Avg. Capsid Protein conc. Day 21” value (HIV-1(MN); 1/dil 10^4) was 0 pg/mL, the “Culture Result Neg” value (HIV-1(MN); 1/dil 10^4, day 21) was 4 and the “Culture Result Pos” value (HIV-1(MN); 1/dil 10^4, day 21) was 0. The “Avg. Capsid Protein conc. Day 7” value (HIV-1(MN); 1/dil 10^5) was 0 pg/mL, the “Avg. Capsid Protein conc. Day 14” value (HIV-1(MN); 1/dil 10^5) was 0 pg/mL and the “Avg. Capsid Protein conc. Day 21” value (HIV-1(MN); 1/dil 10^5) was 0 pg/mL. The “Culture Result Neg” value (HIV-1(MN); 1/dil 10^5, day 21) was 4, the “Culture Result Pos” value (HIV-1(MN); 1/dil 10^5, day 21) was 0 and the “Avg. Capsid Protein conc. Day 7” value (HIV-1(MN); 1/dil 10^6) was 0 pg/mL. The “Avg. Capsid Protein conc. Day 14” value (HIV-1(MN); 1/dil 10^6) was 0 pg/mL, the “Avg. Capsid Protein conc. Day 21” value (HIV-1(MN); 1/dil 10^6) was 0 pg/mL and the “Culture Result Neg” value (HIV-1(MN); 1/dil 10^6, day 21) was 4. The “Culture Result Pos” value (HIV-1(MN); 1/dil 10^6, day 21) was 0, the 1/TCID50/ml (HIV-1(MN); Reed and Muench, day 21) was 0 and the “mobile fraction of the lipid (DiO)” value (HeLa cell membrane) was “not affected”. For the same molecule, the “protein mobile fraction (CD4-GFP)” value (HeLa cell membrane) was “reduced to background level” and the “virus growth (genome copies in culture supernatant)” value (Zaire EBOV) was “did not show any growth”.
